Test results taken from US7816345B2, “Phosphorus-containing prodrugs” (Metabasis Therapeutics, Inc., priority 1999, dated 2010).

Columns and labels:
[1] = system: hepatocytes isolated from rats in which CYP3A4 expression was induced; assay: Activation in hepatocytes from dexamethasone-induced rats (Example J); type: cell-based, rat; settings: two hours of incubation
Method: Methods: Hepatocytes were prepared from fed, dexamethasone-induced Sprague-Dawley rats (300 g) according to the procedure of Berry and Friend (Berry, M. N., Friend, D. S. J. Cell Biol. 43, 506-520 (1969)) as modified by Groen (Groen, A. K. et al. Eur J. Biochem 122, 87-93 (1982)). Hepatocytes (62 mg wet weight/ml) were incubated in 2 ml Krebs bicarbonate buffer containing 10 mM glucose, and 1 mg/ml BSA. Incubations were carried out in a 95% oxygen, 5% carbon dioxide atmosphere in closed, 50-ml Falcon tubes submerged in a rapidly shaking water bath (37° C.). 3.1 and 3.2 were dissolved in methanol to yield 25 mM stock solutions, and then diluted into the cell suspension to yield a final concentration of 250 μM. Two hours following administration, aliquots of the cell suspension were removed and spun through a silicon/mineral oil layer into 10% perchloric acid. The cell extracts in the acid layers were neutralized by the addition of 0.3 volumes of 3M KOH/3M KHCO3, and the extract was then centrifuged, filtered (0.2 micron) and loaded onto an anion exchange HPLC column equilibrated with 70% A (10 mM ammonium phosphate pH 3.5, 6% ETOH) and 30% B (1 M ammonium phosphate pH 3.5, 6% ETOH). […] Detection was by uv absorbance at 254 nm. Peak areas were quantified by comparison of peak areas to authentic standards spiked into naive hepatocyte extracts. […]

[2] = system: P450 isozymes (CYP3A4, CYP1A2, CYP2C9) in human microsomal protein; settings: 0-100 μM inhibitor, 250 μM prodrug, 37° C.
Method: Prodrugs are evaluated for human microsome-catalyzed conversion to MPO2—(NHR^6−) in the absence and presence of specific inhibitors of three major P450 isozymes: ketoconazole (CYP3A4), furafylline (CYP1A2), and sulfaphenazole CYP2C9).
Methods: Reactions (0.5 ml @37° C.) consist of 0.2 M KH2PO4, 13 mM glucose-6-phosphate, 2.2 mM NADP+, 1 unit of glucose-6-phosphate dehydrogenase, 0-2.5 mg/ml human microsomal protein (In Vitro Technologies, Inc.), 250 μM prodrug, and 0-100 μM P450 isozyme inhibitor. Reactions are stopped by addition of methanol to a concentration of 60%, and filtered ([…] filter). MPO2—(NHR^6−) is quantified by standard reverse phase, ion-pairing, or ion exchange HPLC methods. Eluted peaks are quantified relative to authentic standards of known concentration.

[3] = system: glucose production in isolated rat hepatocytes; assay: Inhibition of glucose production in rat hepatocytes (Example I); type: cell-based; settings: for IC50: lactate/pyruvate as substrates, 1 hour
Method: Methods: Isolated rat hepatocytes were prepared from fasted Sprague Dawley rats (250-300 g) as described in Example G. Hepatocytes (75 mg wet weight/ml) were incubated in 1 ml Krebs bicarbonate buffer containing 10 mM glucose, and 1 mg/ml BSA. Incubations were carried out in a 95% oxygen, 5% carbon dioxide atmosphere in closed, 50-ml Falcon tubes submerged in a rapidly shaking water bath (37° C.). After 10 minutes of equilibration, lactate and pyruvate were added to 10 mM and 1 mM concentrations, respectively. Addition of these gluconeogenic substrates was immediately followed by the addition of test compound to concentrations ranging from 1-100 μM. After 1 hour, an aliquot (0.25 ml) was removed, and transferred to an Eppendorf tube and centrifuged. The resulting supernatant (50 μl) was then assayed for glucose content using a Glucose Oxidase kit (Sigma Chemical Co.) as per the manufacturer's instructions.

[4] = Chemical stability in potassium phosphate buffers (Example A); type: physicochemical; settings: pH 7.0 potassium phosphate buffer, room temperature, 12-hour incubation
Method: Methods: Aliquots of a 10 μg/mL solution of Compound 1.3 in potassium phosphate buffers at pH 3 and 7 (room temperature) were sampled hourly for 12 hours. Samples were analyzed by reverse phase HPLC with use of a Beckman Ultrasphere C8 column (4.6×250 mm). The column was equilibrated and eluted with a gradient from 50 mM sodium phosphate pH 5.5 to 80% acetonitrile at a flow rate of 1.0 mL/min. Detection was at 254 nm. Under these conditions, Compound 1.3 was separated from 2-Amino-5-isobutyl-4-[2-(5-phosphonomonoamide)furanyl]thiazole, and from 2-Amino-5-isobutyl-4-(2-furanyl)thiazole (retention times=17, 15.8, and 15.6 min., respectively).

[5] = target: T1, FBPase (Homo sapiens, UniProt P09467); assay: FBPase inhibition in vitro; type: biochemical
T1 sequence (P09467 1-338): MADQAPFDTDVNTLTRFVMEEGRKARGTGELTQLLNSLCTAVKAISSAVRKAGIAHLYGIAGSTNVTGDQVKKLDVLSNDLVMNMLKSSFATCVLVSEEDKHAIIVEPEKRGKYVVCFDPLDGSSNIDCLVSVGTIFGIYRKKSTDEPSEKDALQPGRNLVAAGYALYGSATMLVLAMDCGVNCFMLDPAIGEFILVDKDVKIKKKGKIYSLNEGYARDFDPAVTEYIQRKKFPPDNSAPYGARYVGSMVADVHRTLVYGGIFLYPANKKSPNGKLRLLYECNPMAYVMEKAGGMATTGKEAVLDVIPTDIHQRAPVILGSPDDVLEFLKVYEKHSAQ

[6] = target: T2, human recombinant CYP3A4 (Homo sapiens, UniProt P08684); assay: Activation by recombinant CYP3A4 (Example F); type: in vitro ADME; settings: microsomes from baculovirus-infected insect cells co-expressing CYP3A4 and cytochrome p450 reductase
T2 construct: purchased Panvera Corp., Madison, Wis; host or cells: baculovirus-infected insect cells (microsomes)
Method: Activation of 1.3 was evaluated in reactions containing microsomes from baculovirus-infected insect cells co-expressing human recombinant CYP3A4 and cytochrome p450 reductase (Panvera Corp., Madison, Wis.).
Methods: Reaction mixture composition was similar to that described in Example D. Reactions were terminated by addition of methanol to a final concentration of 60% and products were analyzed by HPLC as described in Example A.

[7] = system: rat hepatocytes; assay: Activation in isolated rat hepatocytes, intracellular triphosphate generation (Examples G, H); type: cell-based; settings: 250 μM, two hours of incubation
Method: Methods: Hepatocytes were prepared from fed, dexamethasone-induced Sprague-Dawley rats (300 g) according to the procedure of Berry and Friend (Berry, M. N., Friend, D. S. J. Cell Biol. 43, 506-520 (1969)) as modified by Groen (Groen, A. K. et al. Eur J. Biochem 122, 87-93 (1982)). Hepatocytes (62 mg wet weight/ml) were incubated in 2 ml Krebs bicarbonate buffer containing 10 mM glucose, and 1 mg/ml BSA. Incubations were carried out in a 95% oxygen, 5% carbon dioxide atmosphere in closed, 50-ml Falcon tubes submerged in a rapidly shaking water bath (37° C.). 3.1 and 3.2 were dissolved in methanol to yield 25 mM stock solutions, and then diluted into the cell suspension to yield a final concentration of 250 μM. Two hours following administration, aliquots of the cell suspension were removed and spun through a silicon/mineral oil layer into 10% perchloric acid. […] Detection was by uv absorbance at 254 nm. Peak areas were quantified by comparison of peak areas to authentic standards spiked into naive hepatocyte extracts.
Methods: 3.2 and acyclovir were evaluated in isolated rat hepatocytes at 250 μM as described in Example G.

[8] = system: rat embryos in culture; settings: cited from earlier work
[9] = system: mouse; assay: Byproduct toxicity testing in vivo (Example N)
Method: Plasma samples are subjected to a standard chemistry panel in which markers of liver function are evaluated.

T2 sequence (P08684 2-503): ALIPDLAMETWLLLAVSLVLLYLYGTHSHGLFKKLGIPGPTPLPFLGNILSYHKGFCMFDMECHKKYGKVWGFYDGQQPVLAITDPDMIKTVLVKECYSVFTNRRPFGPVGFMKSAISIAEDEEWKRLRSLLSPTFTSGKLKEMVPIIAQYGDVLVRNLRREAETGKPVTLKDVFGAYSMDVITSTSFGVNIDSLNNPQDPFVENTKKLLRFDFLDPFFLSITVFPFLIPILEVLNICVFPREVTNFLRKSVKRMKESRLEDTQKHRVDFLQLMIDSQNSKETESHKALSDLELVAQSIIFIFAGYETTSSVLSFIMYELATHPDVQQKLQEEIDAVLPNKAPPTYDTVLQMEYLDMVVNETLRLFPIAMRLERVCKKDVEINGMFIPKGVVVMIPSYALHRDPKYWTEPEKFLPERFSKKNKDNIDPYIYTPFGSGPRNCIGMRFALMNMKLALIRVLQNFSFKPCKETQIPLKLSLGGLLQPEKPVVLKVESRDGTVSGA

SMILES: CSc1sc(N)nc1-c1ccc(P2(=O)OC(c3ccccc3)CCN2C)o1 (centres unmarked) [Compound 1.7, 2-Amino-5-methylthio-4-{2-[5-(N-methyl-1-phenyl-1,3-propyl)phosphoramido]furanyl}thiazole]
- levels of 2-Amino-5-methylthio-4-[2-(5 phosphono)furanyl]thiazole formed [1]: 20.5 ± 3 nmol/g

SMILES: Nc1ccc(S(=O)(=O)Nc2ccnn2-c2ccccc2)cc1 [sulfaphenazole]
- inhibition of formation of MPO2—(NHR^6−) from prodrug [2]: no significant inhibition

SMILES: CC(C)Cc1sc(N)nc1-c1ccco1 [2-Amino-5-isobutyl-4-(2-furanyl)thiazole]
- IC50 ([3]; Rattus norvegicus, Hepatocyte): 2.5 µM

SMILES: CC(C)Cc1sc(N)nc1-c1ccc(P2(=O)NCCC(c3ccccc3)O2)o1 (centres unmarked) [Compound 1.3, 2-Amino-5-isobutyl-4-{2-[5-(1-phenyl-1,3-propyl)phosphoramido]furanyl}thiazole]
- stability [4]: fully stable
- IC50 [3]: 8.5 µM
- lower potency relative to 2-Amino-5-isobutyl-4-(2-furanyl)thiazole ([3]; ratio of IC50's for glucose production): ~3 fold
- inhibition of FBPase in vitro [5]: not an inhibitor
- rate of generation of 2-Amino-5-isobutyl-4-[2-(5-phosphonomonoamide)furanyl]thiazole [6]: 4.2 nmoles/min./nmole CYP3A4

SMILES: CC(=O)N1CCN(c2ccc(OCC3COC(Cn4ccnc4)(c4ccc(Cl)cc4Cl)O3)cc2)CC1 (centres unmarked) [Ketoconazole]
- inhibition of formation of MPO2—(NHR^6−) from prodrug [2]: inhibits the formation of MPO2—(NHR^6−) in a dose-dependent fashion

SMILES: Nc1ncnc2c1ncn2[C@@H]1O[C@H](COP2(=O)NC(c3ccccc3)CCO2)[C@@H](O)[C@@H]1O (stereo partly drawn) [Compound 3.1, 5′-O-(2-oxo-4-Phenyl-1,3,2-oxazaphosphorin-2-yl)-9-β-D-arabinofuranosyl-adenine]
- Intracellular concentration of nucleoside triphosphate (AraATP from 3.1, acyclovir-triphosphate from 3.2) [7]: 15.7 ± 16 nmol/g

SMILES: C=CC(=O)c1ccccc1 [Phenyl vinyl ketone]
- teratogenic activity [8]: lacks teratogenic activity

SMILES: CC(=O)Nc1ccc(O)cc1 [Acetaminophen]
- reduction of hepatic glutathione ([9]; 50, 250 and 500 mg/kg): dose-dependent reduction
- depletion of hepatic glutathione ([9]; highest dose): > 80%

SMILES: Cc1nc2c([nH]1)c(=O)n(C)c(=O)n2Cc1ccco1 [furafylline]
- inhibition of formation of MPO2—(NHR^6−) from prodrug [2]: no significant inhibition
